Assay [1] has as its target T1, Na^+,K+ -ATPase (Canis lupus familiaris, UniProt P50997).
T1 construct: Na^+,K+ -ATPase receptor purified according to Jorghensen; from tissue
Description: displacement of the specific ^3 H-ouabain binding from the Na^+,K+ -ATPase receptor. An excerpt: (§1) To test the affinity for the receptor site of the Na^+,K+ -ATPase and the agonist or antagonist activity on the enzyme, the following tests were used:
a) displacement of the specific ^3 H-ouabain binding from the Na^+,K+ -ATPase receptor purified according to Jorghensen (Jorghensen P., BBA, 1974, 356, 36) and Erdmann (Erdmann E. et al., Arzneim. Forsh., 1984, 34, 1314);

In assay [2] the target is T1, Na^+,K+ -ATPase. Kind of assay: inhibition of the activity of the purified Na^+,K+ -ATPase measured as % of hydrolysis of ^32 P-ATP. In kind it is biochemical.
Source text: as §1
b) inhibition of the activity of the purified Na^+,K+ -ATPase measured as % of hydrolysis of ^32 P-ATP in presence and in absence of the tested compound (Mall F. et al., Biochem. Pharmacol, 1984, 33, 47)

For assay [3] the following is noted: Gelbart and Thomas 1978; Schonfeld and Repke 1988; cited from earlier work.
For assay [4], the system named is Na^+,K+ -ATPase. To be noted: Gelbart and Thomas 1978; Schonfeld and Repke 1988; Thomas et al. 1974; Boutagy et al. 1973; cited from earlier work.
Assay [5] deals with spontaneous hypertensive rats (MHS). Description: effect of 5 week-treatment on the development of hypertension in rats (SBP and HR, tail cuff method). In kind it is in vivo, rat. The settings on record: 20 mg/Kg/os daily in Methocel 0.5% w/v, 5 weeks, 7 rats; for SBP: controls 172 +/- 3.5; for HR: controls 380 +/- 9.0. On the procedure:
Systolic blood pressure (SBP) and heart rate (HR) were measured, by the tail cuff method, in young prehypertensive male rats (MHS or SHR) strains before the development of hypertension (4 weeks of age) for recording the basal values of SBP. Groups of 7 rats were formed and subdivided in control and treated groups. The compound, suspended in Methocel 0.5 % (w/v), was orally given daily for at least 5 weeks to the treated groups. The control group received only Methocel.
SBP and HR were measured weekly 6 and 24 hrs after treatment. After 5 weeks of treatment, when hypertension was fully developed in the control group (9 weeks of age), washout was started for at least one week, to verify whether the treatment mantained blood pressure low or reestablished the basal values. […] (Takeda K. et al., Japan J. Pharmacol, 1979, 29,171; Takeda K. et al. Japan J. Pharmacol., 1982, 32, 283; Richer C. et al. Eur. J. Pharmacol, 1978, 47,393).

The mark [6] stands for this setting: purified Na^+,K+ -ATPase, hydrolysis of ^32 P-ATP, read-out: Inhibitory Activity log IC50 (converted).
Setting [7] is: purified Na^+,K+ -ATPase receptor, read-out: Binding ^3 H-Ouab. Displacement log IC50 (converted).
[8] abbreviates: purified Na^+,K+ -ATPase, hydrolysis of ^32 P-ATP.

The IC50 is the concentration at which inhibition is half-maximal. For the compound `CSC(=N)N/N=C/[C@H]1CC[C@]2(O)[C@@H]3CC[C@@H]4C[C@@H](O)CC[C@]4(C)[C@H]3CC[C@]12C` [Comp. I-ak, (E)-17β-(3-Methylisothiosemicarbazono)methyl-5β-androstane-3β,14-diol], the IC50 is 2000 nM on Na^+,K+ -ATPase [1] and 31.6 µM at Na^+,K+ -ATPase [2].
Take `C[C@]12CC[C@H](OCCN3CCCC3)C[C@H]1CC[C@@H]1[C@@H]2CC[C@]2(C)[C@@H](/C=N/NC(N)=O)CC[C@]12O` [Comp. I-as, (E)-3β-(2-(1-Pyrrolidinyl)ethoxy)-17β-semicarbazonomethyl-5β-androstane-14β-ol]: the IC50 was 1580 nM at Na^+,K+ -ATPase [1] and 39.8 µM at Na^+,K+ -ATPase [2] (setting [6]).
For `C[C@]12CC[C@H](OCCCN)C[C@H]1CC[C@@H]1[C@@H]2CC[C@]2(C)[C@@H](/C=N/NC(N)=O)CC[C@]12O` [Comp. I-aq, (E)-3β-(3-Aminopropoxy)-17β-semicarbazonomethyl-5β-androstane-14β-ol] the same measures were 1260 nM and 39.8 µM.
In the case of `C[C@]12CC[C@H](O)C[C@H]1CC[C@@H]1[C@@H]2CC[C@]2(C)[C@@H](/C=N/NC(=N)NC(=N)N)CC[C@]12O` [Comp. I-af, (E)-17β-(3-Amidino)guanidinoiminomethyl-5β-androstane-3β,14β-diol], the 50% inhibitory concentration (IC50) was 200 nM at Na^+,K+ -ATPase [1] and 7.94 µM at Na^+,K+ -ATPase [2].
On to `C[C@]12CC[C@H](O)C[C@H]1CC[C@@H]1[C@@H]2CC[C@]2(C)[C@@](O)(/C=N/NC3=NCCN3)CC[C@]12O` [Comp. I-bn, (E)-17β-(2-Imidazolin-2-yl)hydrazonomethyl-5β-androstane-3β,14β,17α-triol], for which the IC50 on Na^+,K+ -ATPase [1] was 3980 nM; against Na^+,K+ -ATPase [2], 12.6 µM.
Turning to `C[C@]12CC[C@H](O)C[C@H]1CC[C@@H]1[C@@H]2CC[C@]2(C)/C(=N/NC3=NCCN3)CC[C@]12O` [Comp. I-bo, (E)-17-(2-Imidazolin-2-yl)hydrazono-5β-androstane-3β,14β-diol], the IC50 is 2000 nM at Na^+,K+ -ATPase [1] (setting [7]) and 39.8 µM at Na^+,K+ -ATPase [2] (setting [6]).
As for `C[C@]12CC[C@H](OCCCN)C[C@H]1CC[C@@H]1[C@@H]2CC[C@]2(C)[C@@H](/C=N/NC3=NCCN3)CC[C@]12O` [Comp. I-au, (E)-3β-(3-Aminopropoxy)-17β(2-imidazolin-2-yl)hydrazonomethyl-5β-androstane-14β-ol], the IC50 is 100 nM on Na^+,K+ -ATPase [1] and 3.98 µM against Na^+,K+ -ATPase [2].
For `C[C@]12CC[C@H](O)C[C@H]1CC[C@@H]1[C@@H]2CC[C@]2(C)C(C=NNC(=N)N)CC[C@]12O` (stereo partly drawn) [17-Guanidinoiminomethyl-5β-androstane-3β,14β-diol], in assay [3], the positive inotropic activity entry is listed as “weak positive inotropic agents”. For the same compound, the “inhibition of Na^+,K+ -ATPase” value in the assay on Na^+,K+ -ATPase [4] is given as “weak inhibitors of Na^+,K+ -ATPase”.
`C[C@]12CCC(=NNC(=N)N)C[C@H]1CC[C@@H]1[C@@H]2CC[C@]2(C)[C@@H](/C=N/NC(=N)N)CC[C@]12O` [Comp. I-bi, 3-[(ZE)-Guanidinoimino]-17β-[(E)-guanidinoiminomethyl]-5β-androstane-14β-ol]: the values for the IC50 at Na^+,K+ -ATPase [1] and against Na^+,K+ -ATPase [2] were 126 nM and 5.01 µM, respectively.
As to `C[C@]12CC[C@H](O)C[C@H]1CC[C@@H]1[C@@H]2CC[C@]2(C)[C@@H](/C=N/NC3=NCCCN3)CC[C@]12O` [Comp. I-ae, (E)-17β-(1,4,5,6-Tetrahydro-2-pyrimidinyl)hydrazonomethyl-5β-androstane-3β,14β-diol], the IC50 on Na^+,K+ -ATPase [1] was 251 nM. Also, the “Inhibitory Activity log IC50” value on Na^+,K+ -ATPase [2] (setting [8]) is on record as 5.3.
On to `C[C@]12CC[C@H](O)C[C@H]1CC[C@@H]1[C@@H]2CC[C@]2(C)[C@@H](/C=N/N=C(\N)Nc3ccccc3)CC[C@]12O` [Comp. I-ah, (E)-17β-(3-Phenylguanidino)iminomethyl-5β-androstane-3β,14β-diol], for which the IC50 on Na^+,K+ -ATPase [1] (setting [7]) was 6310 nM; at Na^+,K+ -ATPase [2], 100 µM.
Take `CN1CCN=C1N/N=C/[C@H]1CC[C@]2(O)[C@@H]3CC[C@@H]4C[C@@H](O)CC[C@]4(C)[C@H]3CC[C@]12C` [Comp. I-ac, (E)-17β-(1-Methyl-2-imidazolin-2-yl)hydrazono-methyl-5β-androstane-3β,14β-diol]: the half-inhibitory concentration (IC50) was 1000 nM at Na^+,K+ -ATPase [1] and 12.6 µM against Na^+,K+ -ATPase [2].
In the case of `C[C@]12CC[C@H](OCCN3CCCC3)C[C@H]1CC[C@@H]1[C@@H]2CC[C@]2(C)[C@@H](/C=N/NC3=NCCN3)CC[C@]12O` [Comp. I-aw, (E)-3β-(2-(1-Pyrrolidinyl)ethoxy)-17β-(2-imidazolin-2-yl)hydrazonomethyl-5β-androstane-14β-ol], in assay [5], the SBP is 151 +/- 5.2 mm Hg. The HR in assay [5] is recorded as 388 +/- 9.0 beats/min. The 50% inhibitory concentration (IC50) was 100 nM on Na^+,K+ -ATPase [1] (setting [7]) and 0.398 µM at Na^+,K+ -ATPase [2] (setting [6]).
As for `CN(C)CCNC(=N)N/N=C/[C@H]1CC[C@]2(O)[C@@H]3CC[C@@H]4C[C@@H](O)CC[C@]4(C)[C@H]3CC[C@]12C` [Comp. I-ag, (E)-17β-(3-(2-Dimethylaminoethyl)guanidinoimino)methyl-5β-androstane-3β,14β-diol], the SBP in assay [5] is on record as 154 +/- 4.8 mm Hg. Further, the HR in assay [5] is 390 +/- 5.9 beats/min. Besides, the IC50 on Na^+,K+ -ATPase [1] (setting [7]) is 1000 nM; at Na^+,K+ -ATPase [2] it was 25.1 µM.
As for `C[C@]12CC[C@H](O)C[C@H]1CC[C@@H]1[C@@H]2CC[C@]2(C)[C@@](O)(/C=N/NC(=N)N)CC[C@]12O` [Comp. I-bl, (E)-17β-Guanidinoiminomethyl-5β-androstane-3β,14β,17α-triol], the IC50 at Na^+,K+ -ATPase [1] (setting [7]) was 1580 nM; at Na^+,K+ -ATPase [2] (setting [6]), 39.8 µM.
Regarding `C[C@]12CC[C@H](OCCCN)C[C@H]1CC[C@@H]1[C@@H]2CC[C@]2(C)[C@@H](/C=N/NC(=N)N)CC[C@]12O` [Comp. I-al, (E)-3β-(3-Aminopropoxy)-17β-guanidinoiminomethyl-5β-androstane-14β-ol], in assay [5], the SBP is listed as 153 +/- 6.3 mm Hg and the HR was 380 +/- 10.0 beats/min. The same compound showed an IC50 on Na^+,K+ -ATPase [1] of 39.8 nM. Further, the IC50 on Na^+,K+ -ATPase [2] (setting [6]) was 0.794 µM.
Consider `C[C@]12CC[C@H](O)C[C@H]1CC[C@@H]1[C@@H]2CC[C@]2(C)[C@@H](/C=N/NC3=NCCN3)CC[C@]12O` [Comp. I-aa, (E)-17β-(2-Imidazolin-2-yl)hydrazonomethyl-5β-androstane-3β,14β-diol], for which, in assay [5], the SBP is given as 149 +/- 3.7 mm Hg and the HR is listed as 370 +/- 11.2 beats/min. This compound also gave an IC50 at Na^+,K+ -ATPase [1] of 200 nM. For the same compound, on Na^+,K+ -ATPase [2] (setting [8]), the “Inhibitory Activity log IC50” value is 5.2.
For `C[C@]12CC[C@H](O)C[C@H]1CC[C@@H]1[C@@H]2CC[C@]2(C)C(=NNC(=N)N)CC[C@]12O` [17-guanidinoimino-5β-androstane-3β,14β-diol], the positive inotropic activity entry in assay [3] was “weak positive inotropic agents”. Moreover, the “inhibition of Na^+,K+ -ATPase” value in the assay on Na^+,K+ -ATPase [4] is listed as “weak inhibitors of Na^+,K+ -ATPase”.
For `C[C@]12CC[C@H](OCCN3CCCC3)C[C@H]1CC[C@@H]1[C@@H]2CC[C@]2(C)[C@@H](/C=N/NC(=N)N)CC[C@]12O` [Comp. I-an, (E)-3β-(2-(1-pyrrolidinyl)ethoxy)-17β-guanidinoiminomethyl-5β-androstane-14β-ol], in assay [5], the SBP is 150 +/- 5.1 mm Hg and the HR is 384 +/- 7.9 beats/min. Besides, the IC50 on Na^+,K+ -ATPase [1] (setting [7]) is 39.8 nM. Further, the half-maximal inhibitory concentration (IC50) on Na^+,K+ -ATPase [2] (setting [6]) is 0.501 µM.
Consider `C/C(=N\N=C(N)N)[C@H]1CC[C@]2(O)[C@@H]3CC[C@@H]4C[C@@H](O)CC[C@]4(C)[C@H]3CC[C@]12C` [Comp. I-bk, (E)-20-Guanidinoimino-5β-pregnane-3β,14β-diol], for which the IC50 on Na^+,K+ -ATPase [1] is 251 nM; on Na^+,K+ -ATPase [2] it was 5.01 µM.

(Values after patent US5538960A, “Hydrazono-5β, 14β-androstane derivatives active on the cardiovascular system, and pharmaceutical compositions containing same” (SIGMA-TAU Industrie Farmaceutiche Riunite S.p.A., priority 1992, dated 1996).)
